Consider 6 compounds from patent EP4471048A1, “PEPTIDE INHIBITORS OF INTERLEUKIN-23 RECEPTOR” (Zealand Pharma A/S, priority 2023, dated 2024).

The IC50 is the concentration at which inhibition is half-maximal. A lower IC50 goes with greater potency.

The structures appear in SMILES notation. *1 amine or outer side, *2 acyl side, *3 side chain or, on linkers, in order; H or OH if unused. Where a SMILES comes first, the peptide text is derived from it. Bridges are numbered along the chain shown (N, C = ends). [ ]: non-standard residue; d: D form. X14 = O=C(CC[C@H](N[*:2])C(=O)[*:3])[*:1]; 2Nal = N[C@@H](Cc1ccc2ccccc2c1)C(=O)O; AEF = NCCOc1ccc(C[C@H](N)C(=O)O)cc1; 3Pal = N[C@@H](Cc1cccnc1)C(=O)O; αMeL = CC(C)C[C@](C)(N)C(=O)O; Dab = NCC[C@H](N)C(=O)O; βAla = NCCC(=O)O

The target of the assay is T1, human IL-23R (Homo sapiens, UniProt Q5VWK5).
T1 sequence (Q5VWK5 22-629): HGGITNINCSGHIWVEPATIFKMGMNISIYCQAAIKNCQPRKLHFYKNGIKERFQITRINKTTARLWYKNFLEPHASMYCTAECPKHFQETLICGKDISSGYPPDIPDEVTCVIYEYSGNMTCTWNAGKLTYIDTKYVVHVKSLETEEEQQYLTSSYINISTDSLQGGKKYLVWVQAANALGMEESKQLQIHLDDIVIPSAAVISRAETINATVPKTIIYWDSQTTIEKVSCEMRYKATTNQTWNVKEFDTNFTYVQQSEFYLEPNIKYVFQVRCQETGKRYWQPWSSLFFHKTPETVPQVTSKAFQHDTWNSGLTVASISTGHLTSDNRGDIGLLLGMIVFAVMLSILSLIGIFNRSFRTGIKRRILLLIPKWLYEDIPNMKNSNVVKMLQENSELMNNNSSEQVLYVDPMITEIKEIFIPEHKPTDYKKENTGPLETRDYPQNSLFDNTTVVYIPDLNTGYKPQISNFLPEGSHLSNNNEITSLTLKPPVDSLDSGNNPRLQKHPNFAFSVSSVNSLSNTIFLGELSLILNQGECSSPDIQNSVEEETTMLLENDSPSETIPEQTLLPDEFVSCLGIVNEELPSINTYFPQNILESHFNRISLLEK
Description: biochemical. To be noted: for Emax: read-out: % displacement (hIL-23R NIuc). The source says: The compound binding affinity for IL-23R was estimated by the ability of compounds to displace a fluorophore-labelled reference compound from the human IL-23R. The assay principle relies on Bioluminescence Resonance Energy Transfer (BRET) between a fluorophore-labelled reference compound binding to the IL-23R part of a fusion protein consisting of the IL-23R fused to a Nanoluc luciferase enzyme (Nanoluc). The Nanoluc is placed in the N-terminus in close proximity to the binding domain of the ligand. Upon close proximity between the fluorophore of the fluorophore-labelled compound and the Nanoluc of the fusion protein, bioluminescence energy generated from conversion of a Nanoluc substrate, is transferred to the fluorophore resulting in an increase in BRET. In presence of an unlabelled compound, the unlabelled compound displaces the fluorophore-labelled peptide from its binding site resulting in a decrease in BRET. The concentration for which half of the fluorophore-labelled peptide is displaced by the unlabelled compound depends on the affinity of the compound for the IL-23R, and is termed the IC50 concentration.
The plasmid also contained a gene to confer resistance for the antibiotic hygromycin. A cell line stably expressing the Nluc-IL23R fusion protein was generated by transfection of HEK293 cells with the expression plasmid and selected with hygromycin for 3 weeks in Growth medium consisting of DMEM w/ Glutamax-I containing, 10% V/V FBS, 1% V/V P/S, 1 mM Sodium Pyruvate, and 1X NEAA, and 0.3 mg/mL hygromycin. The remaining cells were propagated and considered a stable expressing Nluc-IL23R fusion protein pool clone.
Cells expressing the Nluc-IL23R fusion protein were expanded in Growth medium and membranes prepared by homogenization of a cell pellet from 18 T175 flasks (4 °C in subsequent steps). The cell pellet was lysed Tris 10 mM, 7.5, 1 mM EDTA and protease inhibitors (Complete, Roche) and homogenized using a 15 mL glass-dounce by 50 strokes. The homogenate was spun at spin @1500 rpm for 10 min, the supernatant transferred to SV-34 tubes and spun at 40000g for 20 min at 4 °C to pellet the crude membranes. The supernatant was then removed, the pellet resuspended in 5 mL buffer containing 50 mM HEPES pH 7.4, 5 mM EGTA, and 5 mM MgCl2, and homogenized. Aliquots of the resuspended and homogenized membranes containing the Nluc-IL23R fusion protein were stored at -80 °C until use.
The plate was sealed with light impermeable plate seals, and incubated on an orbital shaker 400 rpm for 2 hours at room temperature. To determine the BRET ratio, the plate seal was removed and 25 µL of the Nanoluc substrate (Promega N1572) diluted 1:500 was added to each well and incubated for 1-2 minutes on an orbital shaker at 400 rpm. […] The BRET ratio was calculated as the fluorescence from the TAMRA/nanoluc bioluminescence.
Compound potency (IC50) and maximal displacement (% displacement) were estimated by computer-aided curve fitting using a 4-parameter logistic (4PL) non-linear model. […]
In this application, the inventors provide the data as IC50 values.

For the compound `CC[C@H](C)[C@@H]1NC(=O)[C@@H]2CCCCNC(=O)CC[C@@H](C(=O)NCC(=O)N[C@H](Cc3cccnc3)C(N)=O)NC(=O)[C@](C)(C(C)C)NC(=O)[C@H](Cc3ccc4ccccc4c3)NC(=O)[C@H](CC3CC3)NC(=O)[C@H](CCC(=O)N2)NC(=O)[C@H](CCC(N)=O)NC(=O)[C@H](Cc2c[nH]c3ccccc23)NC(=O)[C@H](C(C)C)NC1=O` [Compound 20, K(1c)(6c)^†IVWQE(6c)[Cyclopropyl-Ala][2-Nal][2-Me-Val]E(1c)G[{d}3-(3-Pyridyl)-Ala]-[NH2]], the “% displacement (hIL-23R NIuc)” value is recorded as 108% and the IC50 amounted to 150 nM.
Regarding `CNC(=O)[C@H](Cc1cccnc1)NC(=O)[C@H](CCN)NC(=O)[C@@H]1CCC(=O)NCCCC[C@H]2C(=O)N[C@@H]([C@@H](C)O)C(=O)N[C@@H](Cc3c[nH]c4ccccc34)C(=O)N[C@@H](CCC(N)=O)C(=O)N[C@@H](Cc3cn2nn3)C(=O)N[C@@H](Cc2ccc(OCCN)cc2)C(=O)N[C@@H](Cc2ccc3ccccc3c2)C(=O)N[C@@](C)(CC(C)C)C(=O)N1` [Compound 41, [(N3)-K](1c)(6g)^†TWQ[Pra](6g)[Y(2-aminoethoxy)][2-Nal][2-Me-Leu]E(1c)[Dab][3-(3-Pyridyl)-Ala]-[NHMe]], the IC50 worked out at 1.5 nM and the Emax came out at 98%.
The like results for `COc1ccc(C[C@@H]2NC(=O)[C@@H]3CCC(=O)N[C@@H](CCCCNC(=O)CC[C@@H](C(=O)N[C@@H](CCCCNC(=O)c4ccncc4)C(N)=O)NC(=O)[C@](C)(CC(C)C)NC(=O)[C@H](Cc4ccc5ccccc5c4)NC2=O)C(=O)N[C@@H]([C@@H](C)O)C(=O)N[C@@H](C(C)C)C(=O)N[C@@H](Cc2c[nH]c4ccccc24)C(=O)N[C@@H](CCC(N)=O)C(=O)N3)cc1` [Compound 53, K(1c)(6c)^†TVWQE(6c)[Y(Me)][2-Nal][2-Me-Leu]E(1c)[K(isonicotinyl)]-[NH2]] were, in that order, 420 nM and 95%.
Consider `CNC(=O)[C@H](Cc1cccnc1)NC(=O)[C@H](CCN)NC(=O)[C@@H]1CCC(=O)NCCCC[C@@H]2NC(=O)CC[C@H](NC(=O)[C@H](CCC(N)=O)NC(=O)[C@H](Cc3c[nH]c4ccccc34)NC(=O)CCNC2=O)C(=O)N[C@@H](Cc2c[nH]c3ccccc23)C(=O)N[C@@H](Cc2ccc3ccccc3c2)C(=O)N[C@@](C)(CC(C)C)C(=O)N1` [Compound 110, K(1c)(6c)^†[3-Aminopropanoyl]WQE(6c)W[2-Nal][2-Me-Leu]E(1c)[Dab][3-(3-Pyridyl)-Ala]-[NHMe]] (K[βAla]WQEW[2Nal][αMeL]E[Dab][3Pal]-NHMe; lactam 1-9, N-5), for which the midpoint of inhibition, the IC50, lay at 0.079 nM and the Emax was determined as 100%.
With `CNC(=O)[C@H](Cc1cccnc1)NC(=O)[C@H](CCN)NC(=O)[C@@H]1CCNC(=O)[C@@H]2CCC(=O)N[C@@H](Cc3c[nH]c4ccccc34)C(=O)N[C@@H](CCC(N)=O)C(=O)N[C@@H](CCC(=O)N2)C(=O)N[C@@H](Cc2ccc(OCCN)cc2)C(=O)N[C@@H](Cc2ccc3ccccc3c2)C(=O)N[C@@](C)(CC(C)C)C(=O)N1` [Compound 107, [iso-Glu](1c)^‡(6c)^†WQE(6c)[Y(2-aminoethoxy)][2-Nal][2-Me-Leu][Dab](1c)[Dab][3-(3-Pyridyl)-Ala]-[NHMe]] (WQE[AEF][2Nal][αMeL][Dab][Dab][3Pal]-NHMe; linker N-3-7 via X14), the Emax amounted to 97%.
With `COc1ccc(C[C@@H]2NC(=O)[C@@H]3CCC(=O)N[C@@H](CCCCNC(=O)CC[C@@H](C(=O)N[C@@H](CCCCNC(=O)CCc4ccccn4)C(N)=O)NC(=O)[C@](C)(CC(C)C)NC(=O)[C@H](Cc4ccc5ccccc5c4)NC2=O)C(=O)N[C@@H]([C@@H](C)O)C(=O)N[C@@H](C(C)C)C(=O)N[C@@H](Cc2c[nH]c4ccccc24)C(=O)N[C@@H](CCC(N)=O)C(=O)N3)cc1` [Compound 49, K(1c)(6c)^†TVWQE(6c)[Y(Me)][2-Nal][2-Me-Leu]E(1c)[K(2-pyridylpropionyl)]-[NH2]], inhibition was half-maximal at 820 nM (IC50) and the Emax was found to be 96%.
